Measurements from patent US20080038381A1, “APPLICATION OF GREEN TEA EXTRACT AND ITS MAJOR COMPONENTS IN KELOID SCAR THERAPY” (UNIVERSITY OF SOUTHERN CALIFORNIA, priority 2006, published 2008).

How the values were obtained:
Assay type in all cases: cell-based, human
phosphorylated ERK1/2 = test: HMC-1-stimulated phosphorylated ERK1/2 level in keloid fibroblasts (Western blot); conditions: keloid fibroblasts pretreated 1 h, co-culture 1 h
Procedure: (§1) FIG. 5 Effects of GTE and EGCG on mast cell-stimulated activation of ERK1/2 and Akt, phosphorylation of p70S6K and 4E-BP-1 in keloid fibroblasts. Keloid fibroblasts (KFs) were pretreated with different concentrations of GTE or EGCG, or various kinase inhibitors for 1 h, followed by direct co-culture with the same number of HMC-1 cells under normal culturing condition for 1 h. Equal amount of cell lysates was subjected to Western blot analysis with an antibodies against ERK1/2 (a), p38 MAPK (b), Akt, p70S6K and 4E-BP1 (c) as described in Materials and Methods. Data presented are representative of results from 3 independent experiments.
(§2) Keloid fibroblasts (1×10^5/well) were seeded on the bottom of a 6-well plate and maintained at normal culturing conditions for at least 24 h. Different densities of HMC-1 cells were seeded on top of the monolayer of fibroblasts and co-cultured for different time intervals based on experimental purposes. […]
(§3) To determine type I collagen, and phosphorylated ERK1/2 and Akt levels, cells were solubilized in lysis buffer (50 mM Tris-HCl, pH 7.5, 150 mM NaCl, 5 mM EDTA, 200 μM Na3VO4, 50 mM NaF, 0.5% Triton X-100) supplemented with 10 mM dithiothreitol (DTT), 200 FM phenylmethylsulfonyl fluoride (PMSF) and protease inhibitor cocktails (Sigma). Total protein concentrations of whole cell lysates were determined using BioRad BCA method (PIERCE, Rockford, Ill.). […]

phosphorylated p38 MAPK = test: HMC-1-stimulated phosphorylated p38 MAPK level in keloid fibroblasts (Western blot); conditions: keloid fibroblasts pretreated 1 h, co-culture 1 h
Procedure: as §1, §2, §3

phosphorylated Akt = test: HMC-1-stimulated phosphorylated Akt level in keloid fibroblasts (Western blot); conditions: keloid fibroblasts pretreated 1 h, co-culture 1 h
Procedure: as §1, with “experiments. Keloid fibroblasts (1×10^5/well) were seeded on the bottom of a 6-well plate and maintained at normal culturing conditions for at least 24 h. Different densities of HMC-1 cells were seeded on top of the monolayer of fibroblasts and co-cultured for different time intervals based on experimental purposes. […] Total protein concentrations of whole cell lysates were determined using BioRad BCA method (PIERCE, Rockford, Ill.). […]” for “experiments.”

HMC-1 cells = test: Cell viability by MTT assay, HMC-1 cells; conditions: different concentrations, 24 h, normal conditions
[1] = test system: pro-COL1A1 and COL1A2 gene mRNA; test: COL1A1 and COL1A2 mRNA levels by RT-PCR in co-cultured keloid fibroblasts and HMC-1 cells; conditions: pretreated 1 h, co-culture with HMC-1 cells 24 h
Procedure: (§4) Keloid fibroblasts (1×10^5/well) were seeded on the bottom of a 6-well plate and maintained at normal culturing conditions for at least 24 h. Different densities of HMC-1 cells were seeded on top of the monolayer of fibroblasts and co-cultured for different time intervals based on experimental purposes. To observe the effects of GTE and EGCG or various specific kinase inhibitors on type I collagen expression in keloid fibroblasts co-cultured with HMC-1 cells, fibroblasts at about 80% confluence were pretreated with different concentrations of GTE, EGCG, or various kinase inhibitors for 1 h followed by co-culturing with the same cell density of HMC-1 cells (1:1) under normal culturing conditions for indicated time periods. Cell lysates were prepared for Western blot analysis.
Total RNA was isolated from […] using TRIZOL® Reagent (Invitrogen). RT-PCR analysis of COL1A1, COL1A2 and β-actin mRNA levels was performed using the One-step RT-PCR Kit (QIAGEN, Valencia, Calif.) with primers specific to COL1A1: forward primer 5′-[…]-3′ and reverse primer 5′-[…]-3′; primers for COL1A2: forward primer 5′-[…]-3′ and reverse primer 5′-[…]-3′ (Stefanovic et al., 2005); primers for […]1-actin: forward primer 5′-[…]-3′ and reverse primer 5′-[…]-3′. All the primers were synthesized by Microchemical Core Facility, Norris Cancer Center of University of Southern California.

p-p70S6K = test: HMC-1-stimulated p-p70S6K level in keloid fibroblasts (Western blot); conditions: keloid fibroblasts pretreated 1 h, co-culture 1 h
Procedure: as §1, §2, §3

[2] = test system: type I collagen in keloid fibroblasts; test: Basal (constitutive) type I collagen level in keloid fibroblasts (Western blot); conditions: keloid fibroblasts alone, 24 h
Procedure: Equal amount of cell lysates (100 μg) was subjected to Western blot analysis with an anti-type I collagen antibody as described in Materials and Methods. […] (c) KFs were cultured in the presence of different concentrations of GTE or EGCG for 24 h, and type I collagen levels were determined by Western blot. (d) Denssitometric analysis of results from c. […] The results represent three independent experiments and expressed as the mean ±SD.
To determine type I collagen, and phosphorylated ERK1/2 and Akt levels, cells were solubilized in lysis buffer (50 mM Tris-HCl, pH 7.5, 150 mM NaCl, 5 mM EDTA, 200 μM Na3VO4, 50 mM NaF, 0.5% Triton X-100) supplemented with 10 mM dithiothreitol (DTT), 200 FM phenylmethylsulfonyl fluoride (PMSF) and protease inhibitor cocktails (Sigma). Total protein concentrations of whole cell lysates were determined using BioRad BCA method (PIERCE, Rockford, Ill.). Equal amounts of protein sampled from whole cell lysates were subjected to electrophoresis on 7.5%-10% sodium dodecyl sulfate (SDS)-polyacrylamide gels and electroblotted onto nitrocellulose membranes (Hybond ECL, Amersham Pharmacia). […]
To find out whether GTE and EGCG have any effects on the basal level of type I collagen in keloid fibroblasts, cells were cultured in the presence of different concentrations of GTE or EGCG for 24 hours and type I collagen levels were determined by Western blot.

keloid fibroblasts = test: Cell viability by MTT assay, keloid fibroblasts; conditions: different concentrations, 24 h, normal conditions
p-4E-BP = test: HMC-1-stimulated p-4E-BP level in keloid fibroblasts (Western blot); conditions: keloid fibroblasts pretreated 1 h, co-culture 1 h
Procedure: as §1, with “experiments. Keloid fibroblasts (1×10^5/well) were seeded on the bottom of a 6-well plate and maintained at normal culturing conditions for at least 24 h. Different densities of HMC-1 cells were seeded on top of the monolayer of fibroblasts and co-cultured for different time intervals based on experimental purposes. […] Total protein concentrations of whole cell lysates were determined using BioRad BCA method (PIERCE, Rockford, Ill.). […]” for “experiments.”

[3] = test system: type I collagen expression in keloid fibroblasts co-cultured with HMC-1 cells; test: HMC-1-stimulated type I collagen expression in co-cultured keloid fibroblasts (Western blot); conditions: pretreated 1 h, then co-culture with same density of HMC-1 cells (1:1) for 24 h
Procedure: as §4
To determine type I collagen, and phosphorylated ERK1/2 and Akt levels, cells were solubilized in lysis buffer (50 mM Tris-HCl, pH 7.5, 150 mM NaCl, 5 mM EDTA, 200 μM Na3VO4, 50 mM NaF, 0.5% Triton X-100) supplemented with 10 mM dithiothreitol (DTT), 200 FM phenylmethylsulfonyl fluoride (PMSF) and protease inhibitor cocktails (Sigma). Total protein concentrations of whole cell lysates were determined using BioRad BCA method (PIERCE, Rockford, Ill.). Equal amounts of protein sampled from whole cell lysates were subjected to electrophoresis on 7.5%-10% sodium dodecyl sulfate (SDS)-polyacrylamide gels and electroblotted onto nitrocellulose membranes (Hybond ECL, Amersham Pharmacia). After blocking with Tris-buffered saline (TBS)/5% skim milk, the membranes were incubated overnight at 4 °C with primary antibodies against human type I collagen, total or phosphorylated ERK1/2 (Thr202/Tyr204) or Akt (Ser473). Membranes were subsequently washed, incubated with a horseradish peroxidase (HRP) conjugated secondary:antibodies (1:2000) (Pierce, Rockford, Ill.) for 1 h at room temperature, and visualized using an enhanced chemiluminescent (ECL) detection.

O=C(O[C@@H]1Cc2c(O)cc(O)cc2O[C@@H]1c1cc(O)c(O)c(O)c1)c1cc(O)c(O)c(O)c1 [EGCG, (−)-epigallocatechin-3-gallate]
phosphorylated ERK1/2 level stimulated by co-culture with HMC-1 cells (phosphorylated ERK1/2): did not have any obvious inhibitory effects
phosphorylated p38 MAPK level stimulated by co-culture with HMC-1 cells (phosphorylated p38 MAPK): did not have any obvious inhibitory effects
phosphorylated Akt level stimulated by HMC-1 cells (phosphorylated Akt): dose-dependent reduction
cell viability (MTT), HMC-1 cells (HMC-1 cells): No obvious changes in cell viability
HMC-1-stimulated type I collagen mRNA messages (pro-COL1A1, COL1A2) in keloid fibroblasts [1]: dose-dependent reduction
p-p70S6K level stimulated by HMC-1 cells (p-p70S6K): dose-dependent reduction
constitutive (basal) expression of type I collagen in keloid fibroblasts [2]: inhibited the constitutive expression of type I collagen in a dose-dependent manner
cell viability (MTT), keloid fibroblasts (keloid fibroblasts): No obvious changes in cell viability
p-4E-BP level stimulated by HMC-1 cells (p-4E-BP): dose-dependent reduction
HMC-1-stimulated type I collagen expression (protein production) in keloid fibroblasts [3]: dose-dependent reduction

COc1cccc(-c2cc(=O)c3ccccc3o2)c1N [PD98059]
HMC-1-stimulated type I collagen expression (protein production) in keloid fibroblasts [3]: no obvious inhibitory effects

C[S+]([O-])c1ccc(-c2nc(-c3ccncc3)c(-c3ccc(F)cc3)[nH]2)cc1 (stereo not shown) [SB203580]
HMC-1-stimulated type I collagen expression (protein production) in keloid fibroblasts [3]: dose dependent inhibition

N#CC(=C(/N)Sc1ccccc1N)/C(C#N)=C(\N)Sc1ccccc1N [U0126]
HMC-1-stimulated type I collagen expression (protein production) in keloid fibroblasts [3]: no obvious inhibitory effects
